Patent publication US8546389B2 (priority 2010, dated 2013)

How the values were obtained:
[1] = test system: genotype 1b (Con 1) subgenomic replicon cell line; assay: HCV replicon assay, genotype 1b (Renilla luciferase); type: cell-based, HCV genotype 1b (Con 1); conditions: Hepatitis C virus; genotype 1b replicon, 72 hours, luciferase; read-out: genotype 1b EC50 (range class)
Summary of the method: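 Subgenomic replicon cells expressing Renilla luciferase (1b Con1; 1a and 2a lines by the same method) seeded at 7000 cells/well (5000 for 2a) without G418, exposed to 3-fold compound dilutions for 72 h at 37 °C. Luciferase activity measured; EC50 by non-linear regression.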

[2] = target: 1b (BK) NS5bΔ21 (Hepatitis C virus genotype 1b (isolate BK) (HCV), UniProt P26663); assay: HCV polymerase inhibition assay, genotype 1b; type: biochemical, HCV genotype 1b (BK); conditions: 1b (BK) NS5bΔ21, 33P-GTP incorporation; read-out: 1b polymerase IC50 (range class)
Summary of the method: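 Both genotype 1b and 3a enzymes assayed identically: ^33P-GTP incorporation on poly(rC) template, GTP at Km, 50 nM NS5bΔ21, pH 7.5 Tris with 5 mM MgCl2 and MnCl2, 1 h reaction ended by cold EDTA. Filter-bound label counted; IC50 fitted by non-linear regression across three-fold dilution series.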

Sequence of 1b (BK) NS5bΔ21 (P26663 2420-2989): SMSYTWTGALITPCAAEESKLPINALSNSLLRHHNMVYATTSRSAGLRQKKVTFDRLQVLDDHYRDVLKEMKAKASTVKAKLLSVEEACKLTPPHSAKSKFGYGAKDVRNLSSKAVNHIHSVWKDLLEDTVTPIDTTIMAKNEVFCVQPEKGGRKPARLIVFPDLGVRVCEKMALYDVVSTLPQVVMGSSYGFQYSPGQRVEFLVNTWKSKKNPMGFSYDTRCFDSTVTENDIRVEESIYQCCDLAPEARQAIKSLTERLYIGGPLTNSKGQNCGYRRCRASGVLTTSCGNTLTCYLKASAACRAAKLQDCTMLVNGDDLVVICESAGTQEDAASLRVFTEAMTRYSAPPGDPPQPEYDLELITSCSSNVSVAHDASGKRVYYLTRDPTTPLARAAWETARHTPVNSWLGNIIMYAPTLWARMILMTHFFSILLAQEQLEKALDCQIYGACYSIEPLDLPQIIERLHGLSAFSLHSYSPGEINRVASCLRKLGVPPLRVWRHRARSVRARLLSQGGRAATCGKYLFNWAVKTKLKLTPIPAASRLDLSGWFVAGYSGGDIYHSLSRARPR

Row | Compound | EC50 [1] | IC50 [2]
1 | CNC(=O)c1c2cc(C3CC3)c(N(CCCNC(=O)C3CC3)S(C)(=O)=O)cc2nn1-c1ccc(Br)cc1 [Compound 183] | < 990 nM | < 990 nM
2 | CCNC(=O)CCCN(c1cc2nn(-c3ccc(Br)cc3)c(C(=O)NC)c2cc1C1CC1)S(C)(=O)=O [Compound 184] | 1000 to 9990 nM | < 990 nM
3 | CNC(=O)c1c2cc(C3CC3)c(N(CCCNC(=O)CCN(C)C)S(C)(=O)=O)cc2nn1-c1ccc(Br)cc1 [Compound 185] | 1000 to 9990 nM | 1000 to 9990 nM
4 | CNC(=O)c1c2cc(C3CC3)c(N(CCCNC(=O)c3ccc(N4CCOCC4)nc3)S(C)(=O)=O)cc2nn1-c1ccc(Br)cc1 [Compound 186] | < 990 nM | < 990 nM
5 | CNC(=O)c1c2cc(C3CC3)c(N(CCCNC(=O)[C@H]3CCCC[C@@H]3C(=O)O)S(C)(=O)=O)cc2nn1-c1ccc(Br)cc1 [Compound 187] | 1000 to 9990 nM | < 990 nM
6 | CNC(=O)c1c2cc(C3CC3)c(N(CCCNC(=O)[C@H]3CC=CC[C@H]3C(=O)O)S(C)(=O)=O)cc2nn1-c1ccc(Br)cc1 [Compound 188] | < 990 nM | < 990 nM
7 | C=C(C)c1ccc(-n2nc3cc(N(CC)S(C)(=O)=O)c(C4CC4)cc3c2C(=O)NC)cc1 [Compound 192] | < 990 nM | 1000 to 9990 nM
8 | CCS(=O)(=O)NC(=O)CCCN(c1cc2nn(-c3ccc(Br)cc3)c(C(=O)NC)c2cc1C1CC1)S(C)(=O)=O [Compound 193] | 1000 to 9990 nM | < 990 nM
9 | CNC(=O)c1c2cc(C3CC3)c(N(CCCN3CCCC3=O)S(C)(=O)=O)cc2nn1-c1ccc(Br)cc1 [Compound 194] | < 990 nM | < 990 nM
10 | CNC(=O)c1c2cc(C3CC3)c(N(CCCC(=O)NS(=O)(=O)C(F)(F)F)S(C)(=O)=O)cc2nn1-c1ccc(Br)cc1 [Compound 196] | 1000 to 9990 nM | < 990 nM
11 | CNC(=O)c1c2cc(C3CC3)c(N(CCCNC(=O)c3ccccc3)S(C)(=O)=O)cc2nn1-c1ccc(Cl)cc1 [Compound 197] | < 990 nM | < 990 nM
12 | CNC(=O)c1c2cc(C3CC3)c(N(CCCC(=O)NS(=O)(=O)N(C)C)S(C)(=O)=O)cc2nn1-c1ccc(Br)cc1 [Compound 198] | 1000 to 9990 nM | < 990 nM
13 | CNC(=O)c1c2cc(C3CC3)c(N(CCCN(C)C)S(C)(=O)=O)cc2nn1-c1ccc(Cl)cc1 [Compound 199] | < 990 nM | 1000 to 9990 nM
14 | CNC(=O)c1c2cc(C3CC3)c(N(CCCN3CCOCC3)S(C)(=O)=O)cc2nn1-c1ccc(Cl)cc1 [Compound 201] | < 990 nM | < 990 nM
15 | CNC(=O)c1c2cc(C3CC3)c(N(CC3COC(C)(C)OC3)S(C)(=O)=O)cc2nn1-c1ccc(Br)cc1 [Compound 202] | < 990 nM | < 990 nM
16 | CNC(=O)c1c2cc(C3CC3)c(N(CC(CO)CO)S(C)(=O)=O)cc2nn1-c1ccc(Br)cc1 [Compound 203] | 10000 to 50000 nM | 10000 to 50000 nM
17 | CNC(=O)c1c2cc(C3CC3)c(N(CCCNC(=O)[C@H]3C[C@H]3C(=O)OC)S(C)(=O)=O)cc2nn1-c1ccc(Br)cc1 [Compound 204] | < 990 nM | < 990 nM
18 | CNC(=O)c1c2cc(C3CC3)c(N(CCCNC(=O)[C@H]3COCCN3C)S(C)(=O)=O)cc2nn1-c1ccc(Cl)cc1 [Compound 205] | < 990 nM | < 990 nM
19 | CNC(=O)c1c2cc(C3CC3)c(N(CCCO)S(C)(=O)=O)cc2nn1-c1ccc(C)c(F)c1 [Compound 206] | < 990 nM | < 990 nM
20 | CNC(=O)c1c2cc(C3CC3)c(N(CCCC(=O)OC)S(C)(=O)=O)cc2nn1-c1ccc(Cl)cc1 [Compound 207] | 1000 to 9990 nM | < 990 nM
21 | CNC(=O)c1c2cc(C3CC3)c(N(CCCC(=O)O)S(C)(=O)=O)cc2nn1-c1ccc(Cl)cc1 [Compound 208] | 10000 to 50000 nM | < 990 nM
22 | CNC(=O)c1c2cc(C3CC3)c(N(CCCN3C(=O)[C@H]4CCCC[C@H]4C3=O)S(C)(=O)=O)cc2nn1-c1ccc(Br)cc1 [Compound 209] | < 990 nM | < 990 nM
23 | CNC(=O)c1c2cc(C3CC3)c(N(CCCNCc3ccc(OC)cc3)S(C)(=O)=O)cc2nn1-c1ccc(Br)cc1 [Compound 210] | 1000 to 9990 nM | 1000 to 9990 nM
24 | CNC(=O)c1c2cc(C3CC3)c(N(CCCNCc3cccnc3)S(C)(=O)=O)cc2nn1-c1ccc(Br)cc1 [Compound 211] | 1000 to 9990 nM | < 990 nM
25 | CCOC(=O)C(CCCN(c1cc2nn(-c3ccc(Br)cc3)c(C(=O)NC)c2cc1C1CC1)S(C)(=O)=O)C(=O)OCC [Compound 212] | < 990 nM | < 990 nM
26 | CNC(=O)c1c2cc(C3CC3)c(N(CCCOC)S(C)(=O)=O)cc2nn1-c1ccc(Br)cc1 [Compound 213] | < 990 nM | < 990 nM
27 | CNC(=O)c1c2cc(C3CC3)c(N(CCCO)S(C)(=O)=O)cc2nn1-c1ccc(C)cc1 [Compound 214] | < 990 nM | < 990 nM

Row | Compound | EC50 [1] | IC50 [2]
28 | CNC(=O)c1c2cc(C3CC3)c(N(CCCNC(=O)[C@H]3CCC[C@H]3C(=O)OC)S(C)(=O)=O)cc2nn1-c1ccc(Br)cc1 [Compound 215] | < 990 nM | < 990 nM
29 | CNC(=O)c1c2cc(C3CC3)c(N(CCCC(=O)NS(=O)(=O)C(F)(F)F)S(C)(=O)=O)cc2nn1-c1ccc(Cl)cc1 [Compound 217] | 1000 to 9990 nM | < 990 nM
30 | CNC(=O)c1c2cc(C3CC3)c(N(CCCNC(=O)[C@H]3C[C@H]3C(=O)O)S(C)(=O)=O)cc2nn1-c1ccc(Br)cc1 [Compound 218] | 1000 to 9990 nM | < 990 nM
31 | CNC(=O)c1c2cc(C3CC3)c(N(CCCNC(=O)c3ccn(C)c(=O)c3)S(C)(=O)=O)cc2nn1-c1ccc(Br)cc1 [Compound 219] | 1000 to 9990 nM | < 990 nM
32 | CNC(=O)c1c2cc(C3CC3)c(N(CCCC(=O)OC(C)C)S(C)(=O)=O)cc2nn1-c1ccc(Br)cc1 [Compound 220] | < 990 nM | < 990 nM
33 | CCN(C(=O)c1ccco1)c1cc2nn(-c3ccc(Br)cc3)c(C(=O)NC)c2cc1C1CC1 [Compound 221] | 1000 to 9990 nM | 10000 to 50000 nM
34 | CNC(=O)c1c2cc(C3CC3)c(N(CCCO)S(C)(=O)=O)cc2nn1-c1ccc(Br)c(F)c1 [Compound 223] | < 990 nM | < 990 nM
35 | CNC(=O)c1c2cc(C3CC3)c(N(CCCC(C(=O)O)C(=O)O)S(C)(=O)=O)cc2nn1-c1ccc(Br)cc1 [Compound 224] | 1000 to 9990 nM | < 990 nM
36 | CCOC(=O)CCCN(CC)c1cc2nn(-c3ccc(Br)cc3)c(C(=O)NC)c2cc1C1CC1 [Compound 225] | < 990 nM | 1000 to 9990 nM
37 | CNC(=O)c1c2cc(C3CC3)c(-c3c(C)noc3C)cc2nn1-c1ccc(C)cc1 [Compound 226] | 1000 to 9990 nM | 10000 to 50000 nM
38 | CNC(=O)c1c2cc(C3CC3)c(N(CCCC(=O)O)S(C)(=O)=O)cc2nn1-c1ccc(C)cc1 [Compound 229] | 10000 to 50000 nM | < 990 nM
39 | CCOC(=O)CCCN(c1cc2nn(-c3ccc(C)cc3)c(C(=O)NC)c2cc1C1CC1)S(C)(=O)=O [Compound 230] | < 990 nM | < 990 nM
40 | CNC(=O)c1c2cc(C3CC3)c(N(CC3CC3)S(C)(=O)=O)cc2nn1-c1ccc(Br)cc1 [Compound 231] | < 990 nM | < 990 nM
41 | CNC(=O)c1c2cc(C3CC3)c(N(CCOC)S(C)(=O)=O)cc2nn1-c1ccc(Br)cc1 [Compound 232] | < 990 nM | 1000 to 9990 nM
42 | CNC(=O)c1c2cc(C3CC3)c(N(CCC(F)(F)F)S(C)(=O)=O)cc2nn1-c1ccc(Br)cc1 [Compound 233] | < 990 nM | < 990 nM
43 | CCN(c1cc2nn(-c3ccc(Br)c(F)c3)c(C(=O)NC)c2cc1C1CC1)S(C)(=O)=O [Compound 236] | < 990 nM | < 990 nM
44 | CNC(=O)c1c2cc(C3CC3)c(N(C)S(C)(=O)=O)cc2nn1-c1ccc(Cl)cc1 [Compound 237] | < 990 nM | < 990 nM
45 | CNC(=O)c1c2cc(C3CC3)c(N(CCC(CO)CO)S(C)(=O)=O)cc2nn1-c1ccc(Cl)cc1 [Compound 238] | 1000 to 9990 nM | < 990 nM
46 | CCN(c1cc2nn(-c3ccc(Cl)c(F)c3)c(C(=O)NC)c2cc1C1CC1)S(C)(=O)=O [Compound 239] | < 990 nM | < 990 nM
47 | CNC(=O)c1c2cc(C3CC3)c(N(CCF)S(C)(=O)=O)cc2nn1-c1ccc(Br)cc1 [Compound 241] | < 990 nM | < 990 nM
48 | CNC(=O)c1c2cc(C3CC3)c(N(CCCNC(=O)C(C)C)S(C)(=O)=O)cc2nn1-c1ccc(Cl)cc1 [Compound 242] | < 990 nM | < 990 nM
49 | CNC(=O)c1c2cc(C3CC3)c(N(CCCOC)S(C)(=O)=O)cc2nn1-c1ccc(Cl)cc1 [Compound 243] | < 990 nM | < 990 nM
50 | CCN(c1cc2nn(-c3ccc(C)c(F)c3)c(C(=O)NC)c2cc1C1CC1)S(C)(=O)=O [Compound 244] | < 990 nM | < 990 nM
51 | CNC(=O)c1c2cc(C3CC3)c(N(CCC(F)(F)F)S(C)(=O)=O)cc2nn1-c1ccc(Cl)cc1 [Compound 245] | < 990 nM | < 990 nM
52 | CNC(=O)c1c2cc(C3CC3)c(N(CC3CC3)S(C)(=O)=O)cc2nn1-c1ccc(Cl)cc1 [Compound 246] | < 990 nM | < 990 nM
53 | CNC(=O)c1c2cc(C3CC3)c(N(CCF)S(C)(=O)=O)cc2nn1-c1ccc(Cl)cc1 [Compound 247] | < 990 nM | < 990 nM
54 | CNC(=O)c1c2cc(C3CC3)c(N(CC3CCOCC3)S(C)(=O)=O)cc2nn1-c1ccc(Cl)cc1 [Compound 249] | < 990 nM | < 990 nM
